Experimental data: PMC11129182, “Development of Inhibitors, Probes, and PROTAC Provides a Complete Toolbox to Study PARK7 in the Living Cell” (Journal of Medicinal Chemistry, 2024)
Like-named read-outs stand apart in the source and are kept apart here. Residues, ends and D or L forms follow the SMILES beside them. *: point of attachment. Cbz = O=C(OCc1ccccc1)*

Tests used:
PARK7 [1] = target: T1, PARK7 (Homo sapiens, UniProt Q99497); assay: Hit validation and pure-compound testing in the PARK7 FP assay with JYQ-107; format: biochemical; details: for inhibition at 0.25 µM: read-out: % Inhibition 0.25 µM
T1 sequence (Q99497 1-189): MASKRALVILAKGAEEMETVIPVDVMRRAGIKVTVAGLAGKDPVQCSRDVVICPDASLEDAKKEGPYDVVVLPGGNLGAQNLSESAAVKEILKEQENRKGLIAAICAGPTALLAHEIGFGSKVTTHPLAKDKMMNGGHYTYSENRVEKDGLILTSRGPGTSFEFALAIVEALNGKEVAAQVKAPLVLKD

PARK7 [2] = target: T1, PARK7; assay: Cell-based competition assay with probe JYQ-92 in HEK293T cells; details: live HEK293T cells, 5 μM, 24 h
Protocol: Samples were resolved by SDS-PAGE and analyzed by fluorescence scanning and Western blotting (Figure 2B). The target engagement of cellular PARK7 is reflected by the disappearance of the PARK7 labeling band in the fluorescence gel scan and by the loss of the shifted probe-labeled PARK7 band in the Western blot.
HEK293T cells were treated with the indicated concentrations of indicated inhibitors for indicated incubation time.
Figure S1. Assessment of the cell permeability of JYQ -88. (A) Structure of JYQ-92.
(B) Target engagement of JYQ-88 in HEK293T cells. HEK293T cells were incubated […]
with PARK7 probe JYQ-92 fo r 1 h at 37 °C. The reactions were stopped by the addition of NuPAGE™ LDS sample buffer (4x). Samples were resolved by SDS -PAGE using […]
fluorescence scanning on a Typhoon FLA 9500 (GE Healthcare Life Sciences) using […]
The disappearance of the JYQ-92-labeled band in […]
of JYQ-88 is used as a measurement of cellular PARK7 engagement with JYQ -88.
(1 picture or pasted object on this page, not shown here)

PARK7 [3] = target: T1, PARK7; assay: Activity evaluation of PROTACs in cells (PARK7 degradation, immunoblot); details: A549 cells; for effect of pretreatment on JYQ-194-induced PARK7 degradation: pretreatment 4 h (5 μM pomalidomide, 5 μM JYQ-173 or 10 μM MG-132), then JYQ-194 5 μM 8 h
Protocol: A549 cells were seeded into 6-well plates. The next day after seeding, cells were incubated with the indicated concentrations of indicated PROTACs for 8 h. The cells were then washed with PBS and collected. The collected cell pellets were lysed with Tris-triton buffer as described above. The prepared cell lysate of each sample (10 μL) was added 5 μL 3× LDS + 5% β-mercaptoethanol, and boiled for 10 min.

PARK7 [4] = target: T1, PARK7; assay: biochemical; set-up: Fluorescence polarization competition: residual PARK7 labelling by JYQ-107 probe after 1 h preincubation, % inhibition; details: sheet Validation pure compounds
Protocol: The 15 pure compounds from the two different approaches (5 compounds from structure modification and 10 compounds from HTS) were assessed for their potency to inhibit PARK7 at 0.25 and 1 μM final concentrations using the FP assay (Figure 2A). […] Fifty four compounds showing inhibition above 90% were picked and checked at three different concentrations. Using a Labcyte Echo550 acoustic dispenser, 20, 10, and 5 nL of 1 mM compound stock solutions were transferred from the source plates into an empty 384-well plate to obtain 1, 0.5, 0.25 μM final concentrations. […] The relative loss of FP signal compared with reference controls (5 mM NEM, 100% inhibition, and DMSO, 0% inhibition) was used to calculate the remaining enzyme activity. The inhibition percentage of these 54 compounds was plotted as heatmaps using Graphpad Prism 9.0.1 software. […] Stock solutions of 0.26 μM PARK7 and 80 nM JYQ-107 were prepared. Using a Labcyte Echo550 acoustic dispenser, 10 nL of 1 mM DMSO stock solutions of the library compounds was transferred from the source plates into the empty 1536-well screening plates to obtain a 1.25 μM final compound concentration. Next, PARK7 (6 μL, final concentration 0.2 μM) was dispensed using a Biotek MultiflowFX [compound left out] dispenser and incubated for 2 h, followed by dispensing the probe JYQ-107 (2 μL, final concentration 20 nM). […] The percentage inhibition of each compound was calculated from the FP values, normalized to the positive (5 mM N-ethylmaleimide, 100% inhibition) and negative (DMSO, 0% inhibition) controls.

PARK7 [5] = target: T1, PARK7; assay: High-throughput screen of the crude compound library, PARK7 fluorescence polarization (FP) assay with FP reagent JYQ-107; format: biochemical; details: for inhibition at 1.25 µM: crude compound library, read-out: HTS FP assay %Inhibition (1.25 µM)
[6] = crude compounds, 0.5 µM, read-out: % Inhibition 0.5 µM

Structure (SMILES) | inhibition at 1.25 µM (PARK7 [5]) [%] | inhibition at 0.25 µM (PARK7 [1]; crude compounds, 0.25 µM) [%] | inhibition at 0.5 µM (PARK7 [1]; [6]) [%] | inhibition at 1 µM (PARK7 [1]; crude compounds) [%] | also measured
N#CN1CC[C@@H](C(=O)Nc2nc3c(s2)CN(C(=O)CN2CCOCC2)CC3)C1 [Compound 1, (R)-1-Cyano-N-(5-(2-morpholinoacetyl)-4,5,6,7-tetrahydrothiazolo[5,4-c]pyridin-2-yl)pyrrolidine-3-carboxamide] |  |  |  |  | inhibition at 0.25 µM (PARK7 [1]; pure compounds, 0.25 µM): 62.8%; inhibition at 1 µM (PARK7 [1]; pure compounds): 87.7%; potency in FP assay compared to JYQ-88 (PARK7 [1]; pure compounds, 0.25 and 1 μM): did not improve; cellular target engagement of PARK7 (PARK7 [2]): did not bind with PARK7 in cells
CC(C)C[C@@H](C=O)NC(=O)[C@H](CC(C)C)NC(=O)[C@H](CC(C)C)NC(=O)OCc1ccccc1 [MG-132, reference compound] (Cbz-Leu-Leu-Leu-aldehyde) |  |  |  |  | effect of pretreatment on JYQ-194-induced PARK7 degradation (PARK7 [3]): abolished
N#CN1CC[C@@H](C(=O)Nc2nc3c(s2)CN(C(=O)c2cccc(S(=O)(=O)NCCc4ccc(S(N)(=O)=O)cc4)c2)CC3)C1 [compound 199] |  |  |  |  | inhibition at 0.25 µM (PARK7 [4]): 80.7%; inhibition at 1 µM (PARK7 [4]): 94.6%
Nc1cccc2c1C(=O)N(C1CCC(=O)NC1=O)C2=O (stereo not drawn) [pomalidomide, reference compound] |  |  |  |  | effect of pretreatment on JYQ-194-induced PARK7 degradation (PARK7 [3]): abolished
N#CN1CC[C@@H](C(=O)Nc2nc3c(s2)CN(C(=O)c2cccc(O)c2)CC3)C1 [compound 3] |  |  |  |  | inhibition at 0.25 µM (PARK7 [4]): 58.4%; inhibition at 1 µM (PARK7 [4]): 90.1%
N#CN1CC[C@@H](C(=O)Nc2nc3c(s2)CN(C(=O)c2cccc(S(=O)(=O)N4CCN(C(=O)Cn5cc(COCCOCCOCCNc6cccc7c6C(=O)N(C6CCC(=O)NC6=O)C7=O)nn5)CC4)c2)CC3)C1 (stereo partly drawn) [JYQ-188] |  |  |  |  | PARK7 degradation (PARK7 [3]; 8 h): No degradation of PARK7 was observed
N#CN1CC[C@@H](C(=O)Nc2nc3c(s2)CN(C(=O)c2cccc(S(=O)(=O)NCC4CCCO4)c2)CC3)C1 (stereo partly drawn) [compound 55] |  |  |  |  | inhibition at 0.25 µM (PARK7 [4]): 64.7%; inhibition at 1 µM (PARK7 [4]): 93.5%
N#CN1CC[C@@H](C(=O)Nc2nc3c(s2)CN(C(=O)c2cccc(S(=O)(=O)N4CCN(C(=O)Cn5cc(COCCOCCNc6cccc7c6C(=O)N(C6CCC(=O)NC6=O)C7=O)nn5)CC4)c2)CC3)C1 (stereo partly drawn) [JYQ-187] |  |  |  |  | PARK7 degradation (PARK7 [3]; 8 h): No degradation of PARK7 was observed
N#CN1CC[C@@H](C(=O)Nc2nc3c(s2)CN(C(=O)c2cc(-n4cc(COCCOCCOCCNc5cccc6c5C(=O)N(C5CCC(=O)NC5=O)C6=O)nn4)ccc2F)CC3)C1 (stereo partly drawn) [JYQ-195] |  |  |  |  | concentration at which PARK7 degradation starts (PARK7 [3]; 0.1 to 5 μM, 8 h): 2 µM
N#CN1CC[C@@H](C(=O)Nc2nc3c(s2)CN(C(=O)CCn2nc(C(F)(F)F)cc2C2CC2)CC3)C1 [Compound 333] | 93.5 | 57.5 | 79.2 | 94.5 | 
N#CN1CC[C@@H](C(=O)Nc2nc3c(s2)CN(C(=O)c2cccc(S(=O)(=O)NC4CC4)c2)CC3)C1 [Compound 59, (R)-1-Cyano-N-(5-(3-(N-cyclopropylsulfamoyl)benzoyl)-4,5,6,7-tetrahydrothiazolo[5,4-c]pyridin-2-yl)pyrrolidine-3-carboxamide] | 89.7 | 63.1 | 84.4 | 97.5 | inhibition at 0.25 µM (PARK7 [1]; pure compounds, 0.25 µM): 74.8%; inhibition at 1 µM (PARK7 [1]; pure compounds): 93.6%
N#CN1CC[C@@H](C(=O)Nc2nc3c(s2)CN(C(=O)c2coc(C#Cc4ccccc4)c2)CC3)C1 [Compound 311] | 90.8 | 18.8 | 50.2 | 83.4 | 
N#CN1CC[C@@H](C(=O)Nc2nc3c(s2)CN(C(=O)c2cnn(-c4cccc(Br)c4)c2)CC3)C1 [Compound 156] | 92.6 | 50.5 | 79.8 | 94.7 | 
N#CN1CC[C@@H](C(=O)Nc2nc3c(s2)CNCC3)C1 [cyanimide amine precursor, (R)-1-cyano-N-(4,5,6,7-tetrahydrothiazolo[5,4-c]pyridin-2-yl)pyrrolidine-3-carboxamide] |  |  |  |  | inhibition at 1 µM (PARK7 [5]; read-out: % inhibition in HTS): ~40%; inhibition at 0.25 µM (PARK7 [1]): 3%; inhibition at 0.5 µM (PARK7 [1]; read-out: % inhibition 0.5 μM): 20%
N#CN1CC[C@@H](C(=O)Nc2nc3c(s2)CN(C(=O)c2cc(-c4ccco4)on2)CC3)C1 [Compound 139] | 91.5 | 58.2 | 80.9 | 94.3 | 
N#CN1CC[C@@H](C(=O)Nc2nc3c(s2)CN(C(=O)c2cc(C4CCCCC4)[nH]n2)CC3)C1 [Compound 164] | 95.1 | 48.2 | 75.6 | 94.4 | 
N#CN1CC[C@@H](C(=O)Nc2nc3c(s2)CN(C(=O)c2ccc(-c4ccccn4)s2)CC3)C1 [Compound 258] | 89.2 | 44.4 | 72.9 | 91 | 
N#CN1CC[C@@H](C(=O)Nc2nc3c(s2)CN(C(=O)c2cccc(-c4ncon4)c2)CC3)C1 [Compound 381] |  | 64.1 | 84.8 | 97.7 | inhibition at 1.25 µM (PARK7 [5]; FP reagent JYQ-107): 93.4%
N#CN1CC[C@@H](C(=O)Nc2nc3c(s2)CN(C(=O)c2cccnc2Oc2ccccc2Br)CC3)C1 [Compound 313] | 94.5 | 63 | 81.5 | 94.7 | 
N#CN1CC[C@@H](C(=O)Nc2nc3c(s2)CN(C(=O)C2CN(S(=O)(=O)C4CC4)C2)CC3)C1 [Compound 174] | 91.8 | 35 | 63.1 | 87.7 | 
N#CN1CC[C@@H](C(=O)Nc2nc3c(s2)CN(C(=O)c2cc(-n4ccnc4)ccn2)CC3)C1 [Compound 22] | 90.7 | 52.2 | 81 | 96 | 
N#CN1CC[C@@H](C(=O)Nc2nc3c(s2)CN(C(=O)c2csc(C4CC4)n2)CC3)C1 [Compound 152] | 92.4 | 45.4 | 67.6 | 89.3 | 
N#CN1CC[C@@H](C(=O)Nc2nc3c(s2)CN(C(=O)c2cc(-n4cccc4)ccn2)CC3)C1 [Compound 279] | 94.2 | 82.4 | 96.1 | 96.8 | 
